Values quoted from earlier work as cited in patent US20020086849A1, “Method for introducing antisense oligonucleotides into eucaryotic cells” (priority 2000, published 2002).

Settings: as described in U.S. Pat. No. 5,753,613

For `CCCCCCCCCCCCCCCCCC[N+](C)(C)CCCCCCCCCCCCCCCCCC.[Br-]` [DDAB, dimethyldioctadecylammonium bromide], the transfection efficiency is listed as “poor transfection efficiency”.
